Legend:
Neprilysin = Neprilysin (Homo sapiens, UniProt P08473); assay: In vitro inhibitory concentration against neutral endopeptidase
[1] = target: Angiotensin-converting enzyme (Homo sapiens, UniProt P12821); assay: In vitro inhibitory concentration against angiotensin-converting enzyme; format: protein assay
Sequence of Angiotensin-converting enzyme (P12821 whole entry): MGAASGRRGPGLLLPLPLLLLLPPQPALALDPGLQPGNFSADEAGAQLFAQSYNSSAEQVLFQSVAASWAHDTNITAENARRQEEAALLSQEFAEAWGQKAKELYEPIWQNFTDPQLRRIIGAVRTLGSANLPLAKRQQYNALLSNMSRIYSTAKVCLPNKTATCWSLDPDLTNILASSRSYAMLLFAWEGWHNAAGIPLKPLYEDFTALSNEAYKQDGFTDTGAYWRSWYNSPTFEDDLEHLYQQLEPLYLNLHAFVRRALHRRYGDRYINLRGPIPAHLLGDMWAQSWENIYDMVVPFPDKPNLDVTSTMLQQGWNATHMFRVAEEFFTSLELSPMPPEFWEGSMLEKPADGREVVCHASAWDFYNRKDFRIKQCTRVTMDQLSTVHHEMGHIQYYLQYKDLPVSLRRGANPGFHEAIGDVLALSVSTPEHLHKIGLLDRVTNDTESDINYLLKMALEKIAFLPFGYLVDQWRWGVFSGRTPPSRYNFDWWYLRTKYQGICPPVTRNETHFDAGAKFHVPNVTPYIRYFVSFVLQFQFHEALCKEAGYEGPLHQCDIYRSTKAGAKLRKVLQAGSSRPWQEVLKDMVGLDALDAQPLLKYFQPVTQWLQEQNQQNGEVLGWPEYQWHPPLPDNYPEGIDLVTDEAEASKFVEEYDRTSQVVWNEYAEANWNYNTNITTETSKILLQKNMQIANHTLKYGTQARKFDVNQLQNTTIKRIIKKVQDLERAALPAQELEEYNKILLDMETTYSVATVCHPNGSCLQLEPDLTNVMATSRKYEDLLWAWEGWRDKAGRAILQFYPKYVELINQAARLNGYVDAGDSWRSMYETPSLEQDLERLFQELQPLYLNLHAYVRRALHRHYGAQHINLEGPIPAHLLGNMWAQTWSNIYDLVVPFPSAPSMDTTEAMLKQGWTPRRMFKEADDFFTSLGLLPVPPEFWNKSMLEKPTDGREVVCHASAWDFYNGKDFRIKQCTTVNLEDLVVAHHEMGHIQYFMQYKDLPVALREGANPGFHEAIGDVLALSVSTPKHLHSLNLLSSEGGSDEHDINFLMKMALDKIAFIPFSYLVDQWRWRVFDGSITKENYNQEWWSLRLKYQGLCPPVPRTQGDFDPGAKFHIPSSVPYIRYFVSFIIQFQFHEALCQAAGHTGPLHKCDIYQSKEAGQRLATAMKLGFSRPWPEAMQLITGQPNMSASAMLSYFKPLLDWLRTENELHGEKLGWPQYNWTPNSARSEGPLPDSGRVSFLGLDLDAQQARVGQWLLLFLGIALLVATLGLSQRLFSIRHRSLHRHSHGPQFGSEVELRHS

Sequence of Neprilysin (P08473 whole entry): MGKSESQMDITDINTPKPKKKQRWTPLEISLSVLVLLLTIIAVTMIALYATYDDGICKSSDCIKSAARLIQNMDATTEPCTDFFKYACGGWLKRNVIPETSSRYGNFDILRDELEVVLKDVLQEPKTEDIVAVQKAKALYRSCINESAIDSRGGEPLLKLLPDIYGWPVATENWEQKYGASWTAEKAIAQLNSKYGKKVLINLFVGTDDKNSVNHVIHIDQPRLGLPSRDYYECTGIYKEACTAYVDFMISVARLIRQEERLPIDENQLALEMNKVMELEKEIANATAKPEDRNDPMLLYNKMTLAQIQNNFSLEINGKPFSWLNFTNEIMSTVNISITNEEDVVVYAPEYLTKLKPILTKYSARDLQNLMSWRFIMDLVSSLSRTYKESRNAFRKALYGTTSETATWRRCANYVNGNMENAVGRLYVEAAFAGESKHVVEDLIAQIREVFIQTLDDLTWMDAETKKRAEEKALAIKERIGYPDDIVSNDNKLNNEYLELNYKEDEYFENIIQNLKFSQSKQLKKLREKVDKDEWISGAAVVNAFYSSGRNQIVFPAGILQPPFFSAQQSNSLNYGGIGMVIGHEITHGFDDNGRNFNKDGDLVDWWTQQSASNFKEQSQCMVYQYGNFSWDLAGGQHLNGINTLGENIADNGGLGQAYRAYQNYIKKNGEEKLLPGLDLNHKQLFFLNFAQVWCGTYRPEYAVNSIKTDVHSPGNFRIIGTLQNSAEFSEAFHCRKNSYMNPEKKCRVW

Structure (SMILES)	IC50 (Neprilysin) [µM]	IC50 [1] [µM]
CCCC[C@H](NCP(=O)(O)O)C(=O)N[C@@H](Cc1ccc(-c2ccccc2)cc1)C(=O)O	0.037	0.731
O=C(O)[C@H](Cc1ccc(-c2ccccc2)cc1)NC(=O)[C@H](Cc1cnc[nH]1)NCP(=O)(O)O	> 1	> 1
C[C@H](O)[C@H](NCP(=O)(O)O)C(=O)N[C@@H](Cc1ccc(-c2ccccc2)cc1)C(=O)O	> 1	0.665
CC(C)Oc1ccc(C[C@H](NC(=O)[C@@H](NCP(=O)(O)O)C(C)C)C(=O)O)cc1	0.009	0.092
O=C(O)[C@H](Cc1ccc(-c2ccccc2)cc1)NC(=O)[C@H](Cc1ccc2c(c1)OCO2)NCP(=O)(O)O	0.048	0.147
CC[C@H](C)C(NCC(=O)O)C(=O)N[C@@H](Cc1ccc(-c2ccccc2)cc1)C(=O)O (some centres undefined)	0.2	0.065
O=C(O)[C@H](Cc1ccc(-c2ccccc2)cc1)NC(=O)[C@H](Cc1ccccc1O)NCP(=O)(O)O	> 1	> 1
CC(C)[C@H](NCP(=O)(O)O)C(=O)N[C@@H](Cc1ccc(-c2ccccc2)cc1)C(=O)N1C[C@H](O)C[C@H]1C(=O)O	0.012	> 1
O=C(O)[C@H](Cc1ccc(-c2ccccc2)cc1)NC(=O)[C@H](Cc1ccc(Cl)cc1)NCP(=O)(O)O	0.338	0.473
C[C@H](c1ccccc1)[C@H](NCP(=O)(O)O)C(=O)N[C@@H](Cc1ccc(-c2ccccc2)cc1)C(=O)O	0.047	0.138
O=C(O)[C@H](Cc1ccc(-c2ccccc2)cc1)NC(=O)C1(NCP(=O)(O)O)CCCC1	> 1	> 1
CC(C)[C@H](NCP(=O)(O)O)C(=O)N[C@@H](Cc1ccc(-c2ccccc2)cc1)C(=O)N[C@@H](Cc1ccc(O)cc1)C(=O)O	0.004	> 1
O=C(O)[C@H](Cc1ccc(-c2ccccc2)cc1)NC(=O)[C@H](Cc1cccs1)NCP(=O)(O)O	0.073	0.385
C[C@H](OCc1ccccc1)[C@H](NCP(=O)(O)O)C(=O)N[C@@H](Cc1ccc(-c2ccccc2)cc1)C(=O)O	> 1	0.656
O=C(O)[C@H](Cc1ccc(-c2ccccc2)cc1)NC(=O)[C@H](Cc1ccc(-c2ccccc2)cc1)NCP(=O)(O)O	0.02	0.414
O=C(O)[C@H](Cc1ccc(-c2ccccc2)cc1)NC(=O)[C@H](Cc1ccc(O)cc1)NCP(=O)(O)O	0.226	> 1

Structure (SMILES)	IC50 (Neprilysin) [µM]	IC50 [1] [µM]
CC(C)[C@H](NCP(=O)(O)O)C(=O)N[C@@H](Cc1ccc(-c2ccccc2)cc1)C(=O)O	0.003	0.025
CC[C@@H](C)[C@H](NCP(=O)(O)O)C(=O)N[C@@H](Cc1ccc(-c2ccccc2)cc1)C(=O)O	0.002	0.05
C[C@H](NCP(=O)(O)O)C(=O)N[C@@H](Cc1ccc(-c2ccccc2)cc1)C(=O)O	1	0.66
Cc1ccccc1C[C@H](NCP(=O)(O)O)C(=O)N[C@@H](Cc1ccc(-c2ccccc2)cc1)C(=O)O	0.096	0.498
C[C@H](N[C@@H](Cc1ccccc1)C(=O)N[C@@H](Cc1ccc(-c2ccccc2)cc1)C(=O)O)P(=O)(O)O	0.171	0.044
O=C(O)[C@H](Cc1ccc(-c2ccccc2)cc1)NC(=O)[C@H](Cc1ccc2ccccc2c1)NCP(=O)(O)O	0.282	0.053
CC(C)[C@H](N[C@@H](C)C(=O)O)C(=O)N[C@@H](Cc1ccc(-c2ccccc2)cc1)C(=O)O	0.735	0.023
O=C(O)[C@H](Cc1ccc(-c2ccccc2)cc1)NC(=O)[C@@H](NCP(=O)(O)O)C1CCCCC1	0.034	> 1
CC(C)C[C@H](NCP(=O)(O)O)C(=O)N[C@@H](Cc1ccc(-c2ccccc2)cc1)C(=O)O	0.356	> 1
CC(C)[C@H](NCP(=O)(O)O)C(=O)N[C@@H](Cc1c[nH]c2ccccc12)C(=O)O	0.009	0.24
CC(C)[C@H](NCP(=O)(O)O)C(=O)N[C@@H](Cc1ccc(C2CCCCC2)cc1)C(=O)O	0.035	0.122
O=C(O)[C@H](Cc1ccc(-c2ccccc2)cc1)NC(=O)[C@H](Cc1ccccc1)NCP(=O)(O)O	0.035	0.117
CC(C)(C)[C@H](NCP(=O)(O)O)C(=O)N[C@@H](Cc1ccc(-c2ccccc2)cc1)C(=O)O	> 1	> 1
CC(C)[C@H](NCP(=O)(O)O)C(=O)N[C@@H](CCc1ccccc1)C(=O)O	0.026	0.1
COc1ccccc1C[C@H](NCP(=O)(O)O)C(=O)N[C@@H](Cc1ccc(-c2ccccc2)cc1)C(=O)O	> 1	0.16
CC[C@H](C)C(N[C@@H](C)C(=O)O)C(=O)N[C@@H](Cc1ccc(-c2ccccc2)cc1)C(=O)O (some centres undefined)	0.165	0.022

Reference: ChEMBL document CHEMBL1150039, “Dual inhibition of neutral endopeptidase and angiotensin-converting enzyme by N-phosphonomethyl and N-carboxyalkyl dipeptides” (Bioorg Med Chem Lett, 1994)
